We go through 1 molecule from paper PMC6934184, “Selective DNA-PKcs inhibition extends the therapeutic index of localized radiotherapy and chemotherapy” (The Journal of Clinical Investigation, 2019).

Each structure is given as a SMILES string.

The assay has as its target T1, RET G691S (Homo sapiens, UniProt P07949, G691S).
T1 construct: purchased Thermo Fisher Scientific (Life Technologies) SelectScreen
In words: SelectScreen LanthaScreen. The class given is binding. Conditions: read-out: % displacement. Put shortly:
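NU5455 was profiled across the SelectScreen Broad panel of kinase activity and binding assays. Z'LYTE reactions such as CSF1R ran at apparent Km ATP, while the Adapta CAMK1 assay used ATP listed as 10. Values are given as percent.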
For orientation: TR-FRET usually uses a lanthanide donor and a delayed reading to cut background.

T1 sequence (P07949 29-1114 G691S): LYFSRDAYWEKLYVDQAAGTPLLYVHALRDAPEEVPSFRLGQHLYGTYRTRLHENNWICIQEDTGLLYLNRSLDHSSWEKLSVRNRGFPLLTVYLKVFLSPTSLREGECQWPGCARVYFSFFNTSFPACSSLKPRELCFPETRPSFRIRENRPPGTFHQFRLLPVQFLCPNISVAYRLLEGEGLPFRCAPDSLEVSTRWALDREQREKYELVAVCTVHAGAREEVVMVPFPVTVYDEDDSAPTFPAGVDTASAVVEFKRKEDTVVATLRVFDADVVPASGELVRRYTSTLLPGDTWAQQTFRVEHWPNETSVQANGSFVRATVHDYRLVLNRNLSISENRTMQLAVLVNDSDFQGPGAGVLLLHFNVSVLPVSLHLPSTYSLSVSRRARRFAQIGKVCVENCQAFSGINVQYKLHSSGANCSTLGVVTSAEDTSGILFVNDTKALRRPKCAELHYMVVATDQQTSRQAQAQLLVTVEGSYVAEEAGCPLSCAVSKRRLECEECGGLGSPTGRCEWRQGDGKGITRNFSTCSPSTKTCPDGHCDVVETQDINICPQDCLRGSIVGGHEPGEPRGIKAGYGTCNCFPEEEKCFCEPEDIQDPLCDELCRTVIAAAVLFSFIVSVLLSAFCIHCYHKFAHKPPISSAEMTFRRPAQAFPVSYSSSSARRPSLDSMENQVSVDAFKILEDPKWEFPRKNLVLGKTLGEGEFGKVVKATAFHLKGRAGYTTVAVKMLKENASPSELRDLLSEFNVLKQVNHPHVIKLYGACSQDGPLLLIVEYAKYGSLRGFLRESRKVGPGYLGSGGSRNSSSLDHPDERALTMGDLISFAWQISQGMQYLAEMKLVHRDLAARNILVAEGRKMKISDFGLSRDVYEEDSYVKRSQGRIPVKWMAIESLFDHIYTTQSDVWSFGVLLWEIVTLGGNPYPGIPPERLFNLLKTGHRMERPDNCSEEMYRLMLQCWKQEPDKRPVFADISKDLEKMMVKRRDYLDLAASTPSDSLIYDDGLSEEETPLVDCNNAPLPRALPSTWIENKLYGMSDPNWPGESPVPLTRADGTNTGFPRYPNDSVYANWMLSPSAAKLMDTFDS

Take `CN(C(=O)CN1CCOCC1)c1ccc2sc3c(-c4cccc5c(=O)cc(N6CC7CCC(C6)O7)oc45)cccc3c2c1` [NU5455]: the inhibition at 1 µM was -1.8%.
